Data on seven compounds can be found in ChEMBL document CHEMBL5046247, “Hexahydroazulene-2(1H)-one Sesquiterpenoids with Bridged Cyclobutane, Oxetane, and Tetrahydrofuran Rings from the Stems of Daphne papyracea with α-Glycosidase Inhibitory Activity” (J Nat Prod, 2022).

The nature of the assay: Inhibition of Saccharomyces cerevisiae alpha-glucosidase assessed as reduction in PNP formation using alpha-PNPG as substrate incubated for 30 mins by microplate reader assay.

For the compound `O=C(CCCCc1ccccc1)c1ccc(O)cc1`, the IC50 turned out to be 126 µM.

Take `O=C(CC[C@H](O)C(=O)c1ccc(O)cc1)c1ccccc1`: the IC50 stood at 139 µM.

Turning to `CC1=C2[C@@H](O)[C@@]3(C)CC(=O)[C@@]4(C)[C@]2(CC1=O)C[C@]43C`, the IC50 is 159 µM.

For `CC1=C2C[C@H](C(C)C)C[C@@H]3O[C@@]2(CC1=O)[C@@]3(C)O`, the IC50 was found to be 102 µM.

Turning to `O=C(/C=C/CCc1ccccc1)c1ccc(O)cc1`, the half-maximal inhibitory concentration (IC50) is 43.3 µM.

Regarding `CO[C@@H](CCc1ccccc1)CC(=O)c1ccccc1`, the IC50 came out at 145 µM.

For the compound `C[C@H]1O[C@H](O[C@H]2[C@H](O)[C@@H](O)[C@@H](O[C@H]3[C@H](O)[C@@H](O)C(O)O[C@@H]3CO)O[C@@H]2CO)[C@H](O)[C@@H](O)[C@@H]1N[C@H]1C=C(CO)[C@@H](O)[C@H](O)[C@H]1O` (some centres not stated) [ACARBOSE], the IC50 came to 578 µM.

As a reminder, the IC50 is the point on the concentration scale where inhibition reaches its midpoint.
